The results in this text go back to patent publication US10449200B2, “Combined inhibition of the vitamin D receptor and poly(ADP) ribose polymerase (PARP) in the treatment of cancer” (Institute for Cancer Research, priority 2014, dated 2019).

In test [1] the test system is BxPC3 cells. The test is described as follows: Rucaparib clonogenic assay. To be noted: Homo sapiens. The test is classed as cell-based. The protocol: (§1) Cell viability assays. For clonogenic assays, 1000 cells per well were seeded into 6 well plates on day 0. Cells were treated with gemcitabine at various doses on day 1 for 24 hours, Gemcitabine was washed out on day 2, and cells were allowed to grow for a subsequent 10 days before being fixed (10% methanol+10% acetic acid) and stained with crystal violet (0.4% in 20% ethanol) for colony counting and quantitation. For Rucaparib clonogenic assays, the drug was added at various doses 24 hours after cell plating, and cells were allowed to grow for a subsequent 10 days in the presence of Rucaparib. For TSA clonogenic assays, the drug was added for 4 hours prior to addition of gemcitabine or vehicle for another 18 hours before drugs were washed away, and cells were allowed to grow in drug-free medium for 10 days.
(§2) BxPC3 and Panc1 cells were transfected with control, VDR, and BRCA1 siRNAs and their sensitivity to Rucaparib treatment was compared by clonogenic survival. […] For BXPC3 cells, the IC50s after knockdown of BRCA1 and VDR were 1 and 5 uM, respectively (FIG. 6, A) compared to the control IC50 of 9 μM.

In a further test the test system is Panc1 cells. Description: Rucaparib clonogenic assay. To be noted: Homo sapiens. Format: cell-based. The protocol:
as §1, §2

In test [2] the test system is BxPC3 cells. Description: Immunofluorescence of DNA damage foci (phospho-γH2AX, Rad51, 53BP1) after gemcitabine. The conditions noted are these: BxPC3 VDRkd, TSA (500 nM) treatment, 4 hrs in gemcitabine (50 nM). The test is classed as cell-based, human. On the procedure: For Immunofluorescence, cells were plated onto coverslips 24 hours pre-gemcitabine treatment. At different timepoints post gemcitabine treatment, cells were permeablized, fixed (4% paraformaldehyde) and stained. Antibodies to γH2AX (Millipore; 05-636), Rad51 (a gift), and 53BP1 were used. Alexa Fluor-conjugated (488, 555, and 647 nm) secondary antibodies (Molecular probes; A-11029, A-21428, A-21247) were used at a final concentration of 1 and nuclei counterstained with DAPI. Images were captured using a 40× or 63× high NA objective mounted on a semi-automated inverted microscope (Nikon TEi) with a charge-coupled device camera (Photometrics1394) using Nikon Elements 2.0. Exposure times for antibodies were optimized for control samples and identical exposure times used for the experimental samples. Images were quantitated and analyzed using Nikon Elements 2.0. Confocal images were taken using a Leica TCS-SP8 microscope controlled by LAS software (Leica Microsystems).
It was investigated if these repair pathways were abrogated after VDR knockdown by staining for foci formation by phospho-γH2AX, Rad51, and 53BP1, and measuring intensities after gemcitabine treatment (FIGS. 3, 4, and 5). BxPC3 (high VDR expression) and Panc1 (low VDR expression) cells were treated with gemcitabine (50 nM) for 2, 4, 8, and 18 hours, and fixed and stained for phospho-γH2AX, 53BP1, and Rad51. Foci quantitation included counting of nuclei with >5 foci and a separate measurement of the sum intensities of foci that were averaged for 5 separate immunofluorescence experiments. […] Weak but detectable phospho-γH2AX foci were visible within 4 hours of gemcitabine treatment in BxPC3 cells while it took 18 hours for foci to form in Panc1 cells (FIG. 3, A). Similarly, Rad51 foci were visible after 8 hours of gemcitabine treatment in BxPC3 cells compared to 18 hours in Panc1 cells (FIG. 3, A, FIG. 4, and FIG. 5).

As for `CNCc1ccc(-c2[nH]c3cc(F)cc4c3c2CCNC4=O)cc1` [Rucaparib], the IC50 stood at 1 µM in the test with BxPC3 cells [1] (BXPC-3, BXPC3, knockdown of BRCA1 (siRNA)); 5 µM in the test with BxPC3 cells [1] (BXPC-3, BXPC3, knockdown of VDR (siRNA)); 9 µM in the test on BxPC3 cells [1] (BXPC-3, BxPC3, control siRNA); 4 µM in the test with Panc1 cells (PANC-1, Panc1, control siRNA); 0.0035 µM in the test with Panc1 cells (PANC-1, Panc1, knockdown of BRCA1 (siRNA)); 0.4 µM in the test with Panc1 cells (PANC-1, Panc1, knockdown of VDR (siRNA)).

In the case of `CC(/C=C/C(=O)NO)=C\[C@@H](C)C(=O)c1ccc(N(C)C)cc1` [TSA, trichostatin A], in the test with BxPC3 cells [2], the “cells exhibiting Rad51 foci” value was 89%.

By IC50 is commonly meant the concentration that gives 50% inhibition. Low readings indicate greater potency in that assay, high ones weaker potency in that assay.
